In patent US4343790A, “Controlled release acrylic polymer coated granular pesticidal compositions with attendant reduced dermal toxicity” (priority 1980, dated 1982):

Assay: dermal toxicity of granular formulations (dermal LD50), male albino rabbits
Conditions: rabbit, in vivo, topical or ocular, Table I, 24 h cuff, 14 days observation, O,O-diethyl S-{[(1,1-dimethylethyl)thio]methyl}phosphorodithioate
Excerpt: General method for the evaluation of dermal toxicity of the formulations of the present invention using male albino rabbits as the test animals
a. Five male albino rabbits weighing approximately 2.2 to 3.5 kilogram are selected for each dosage level. The hair is shaved from the entire trunk.
b. Saran tubing or "Vinylite" film VU1900, 30.5 cm (12") wide, 0.04 millimeter in thickness and long enough to fit around the rabbit.
c. One felt cloth bandage measuring approximately 22.9×45.7 cm (9"×18").
d. Four pieces of 3.8 cm (1.5") adhesive tape approximately 35.6 cm (14") long.
a. The granular material is placed in the center of the plastic film and is moistened with water.
b. The rabbits underside is moistened with water and the animals are placed belly down on the material.
c. The plastic is then brought up and around the animal and secured at each end with strips of adhesive tape. The felt cloth is then placed under the belly and brought up around the animal and secured to the body with the remaining two strips of adhesive tape.
Twenty-four hours after dosing, the "cuff" is removed and any remaining material is brushed away. If the test material cannot be removed, the animal is fitted with a fiber collar which prevents the animal from licking the treatment area. The animals are observed for 14 days, post dosing, noting signs of toxicity, skin irritation and mortality. […]

For CCOP(=S)(OCC)SCSC(C)(C)C [O,O-diethyl S-{[(1,1-dimethylethyl)thio]methyl}phosphorodithioate], which LD50 at 336 h is on record?
The LD50 at 336 h was 1 to 2 mg/kg.
